# Source: PMC8241654 (Cell, 2021)
# System: HLA class I
# Format: cell-based, Human
sequence,measurement,value
MIAQYTSAL [B7 COVID 16],HLA class I stabilization across alleles (in words),can stabilize a number of HLA class I alleles
